Test results taken from ChEMBL document CHEMBL3507680, “University of Dundee, Gates Library screen for HepG2 cell viability”.

Assay: Human HepG2 cell viability assay in 384 well format
Assay type: toxicity, cell-based
Parameters: dose 125 nL, time 70.5 hour; concentration not given beside the values
Conditions: HepG2 cells, read-out: Inhibition

SMILES | cytotoxicity at 70.5 h
Cc1cc(CN2CCN(C(C)c3nc(C(C)C)no3)CC2)no1 (centres undefined) | -7.52%
COCCN1CCCC(c2nccnc2Nc2nc(C)cs2)C1 (centres undefined) | -4.96%
COC(=O)C(c1cc(F)ccc1F)N(C)C(=O)c1cnccn1 (centres undefined) | 21.6%
O=C1NC(c2cnc(C3CCC3)s2)Nc2ncccc21 (centres undefined) | -26.5%
O=C(CCc1cc(Br)cs1)NCCCn1ccnc1 | 5.85%
CN1CCC2(CCN(C(=O)c3cccnc3)C2)C1 (centres undefined) | 0.955%
CCN(Cc1ccc2c(c1)OCCO2)C(=O)NCc1cc[nH]n1 | -20.9%
Cc1ccc(C)c(OC(C)C(=O)NCc2cccnc2)c1 (centres undefined) | -5.32%
CC(C)(C)C(=O)NCCCC(=O)NC(C)(C)c1ccc2c(c1)OCO2 | 3.16%
COCCN1CCO[C@H]2[C@H](OCc3cccc(C)n3)CC[C@@H]21 | -2.63%
CCc1nc(CN2CCN(C(C)c3nc(C4CC4)no3)CC2)no1 (centres undefined) | -10.3%
Cc1cccc(N2CCN(C(=O)CC3(O)CCCC3)C(C)C2)n1 (centres undefined) | 0.326%
COc1ncc(CN2CCCC(c3[nH]ncc3S(C)(=O)=O)C2)cn1 (centres undefined) | -7.31%
CC(C)[C@@H](CO)Nc1cc(-c2cn[nH]c2)ncn1 | 0.985%
Cc1cc(C(=O)N2CCCN(Cc3nccn3C(C)C)CC2)no1 | -5.9%
O=C(c1n[nH]c(=O)c2ccccc12)N1CCCCC1c1ccn[nH]1 (centres undefined) | -8.63%
CC(=O)N1C[C@H]2CNC[C@@]2(C(=O)NCCNc2ccncc2C)C1 | -0.521%
CN1CCN(Cc2cccnc2)C(=O)C12CCN(S(C)(=O)=O)CC2 | -5.92%
CNc1ccnc(NCC(=O)Nc2cc(C)ccc2OC)n1 | -5.67%
CC(Cn1cccn1)NCc1csc(-c2ccccc2)n1 (centres undefined) | -3.84%
CS(=O)(=O)N[C@H]1CN(C(=O)c2cscn2)[C@@H]2CCCO[C@H]12 | -8.41%
COc1ccccc1OCCNC(=O)NCc1nc(C)no1 | -6.75%
O=C(CCNC(=O)c1ccoc1)Nc1cc(F)cc(F)c1 | -10.4%

SMILES | cytotoxicity at 70.5 h
Cc1ccc(C2CCCN2CC(=O)N(CCC#N)c2ccccc2)cc1 (centres undefined) | -7.81%
O=C(c1ccccn1)N1CCN(c2cnnc(N3CCCC3)c2)CC1 | -10.9%
N#Cc1cccnc1N1CCCN(C(=O)CCn2cccn2)CC1 | -9.39%
c1cncc(O[C@H]2COCCN(CC3CC3)C2)c1 | 0.0943%
CO[C@@H]1CCN(C(=O)Cc2cccc(F)c2)[C@H]1Cc1cccnc1 | -3.88%
O=C(NCCOc1ccc2c(c1)OCO2)N1CCCC(CO)C1 (centres undefined) | -10%
CC(=O)N1C[C@H](NC(=O)c2ccnc(N)c2)[C@@H](C(C)C)C1 | 3.14%
O=C(c1cncc(NCC2COc3ccccc3C2)n1)N1CCCC1 (centres undefined) | 14.9%
CN(C)S(=O)(=O)CCNc1ncc2c(n1)CCN2c1ccccc1 | -6.26%
CN(C)c1cc(CNC(=O)c2cccnc2O)ccn1 | -12.1%
Cc1ccc2c(c1)OC(C)(C)CC2NC(=O)C1CCN(C)CC1 (centres undefined) | -9.96%
Cc1ccc2c(c1)c(C)cc(=O)n2CCC#N | 0.982%
O=C(CCCn1ccnc1)N[C@H]1CN(C2CCCC2)C[C@@H]1C1CC1 | -11.7%
Cc1cccc(OCC(=O)N(Cc2ccncc2)C2CC2)c1 | -0.457%
CN(Cc1ccccc1Cl)C(=O)c1cc(CN2CCC(O)CC2)on1 | -17.3%
COc1cc(C)nc(N2CCN(C(=O)CCc3nccs3)CC2)n1 | 9.16%
Cc1nn(C)c(C)c1CN(C)c1nc(C2CC2)nc2c(C)nn(C)c12 | 29.7%
CS(=O)(=O)CCNC(=O)N(Cc1ccoc1)C1CCCCC1 | -7.65%
Cc1nc(CN(CCS(C)(=O)=O)C(C)C)no1 | -5.83%
CCOCCN1CCCC(c2cc(C(N)=O)[nH]n2)C1 (centres undefined) | -13.1%
O=c1[nH]c(C2CCOC2)nc2ccc(Cl)cc12 (centres undefined) | 7.32%
Cc1cc(CNC(=O)c2cc(NC(=O)C(C)C)ccc2Cl)no1 | 13.5%
Cc1occc1C(=O)N1CCc2ncnc(C3CCOC3)c2CC1 (centres undefined) | -12.9%

SMILES | cytotoxicity at 70.5 h
CS(=O)(=O)NCC(=O)N[C@H]1CN(CC2CC2)C[C@@H]1c1ccccc1 | -9.72%
CC(C)S(=O)(=O)N(C)C(=O)CCc1ccsc1 | -12%
CN(C)C1(CNC(=O)C2CCCN2Cc2ccc(F)cc2)CCOCC1 (centres undefined) | 6.73%
CC(C)c1noc(CS(=O)(=O)CC(=O)NCc2ccccc2)n1 | -9.16%
CCc1ncncc1C(=O)NCCNC(=O)c1ccc(C)c(F)c1 | -8.42%
Nc1no[n+]([O-])c1C(=O)NCc1ccco1 | 7.08%
Clc1ccc(CN(CCN2CCOCC2)Cc2cccnc2)c(Cl)c1 | -5.57%
Cc1ncsc1C(=O)N(Cc1ccccc1)C1CC1 | -19.8%
N#Cc1ccc(N2CCC3(CC2)COCCN3Cc2cccnc2)cc1 | -4.74%
Cc1cnn(CC2CCCN2CC(=O)Nc2nccs2)c1 (centres undefined) | 3.35%
O=C(CN1CCOCC1)N1CCN(C2CCc3ccc(F)cc32)CC1 (centres undefined) | -4.68%
COc1ccc2c(c1)CC(C(=O)N(C)CCCc1cnn(C)c1)CO2 (centres undefined) | -8.48%
CC1CN(C)CCN1CC(=O)NCCOc1ccc2c(c1)OCO2 (centres undefined) | 9.64%
Cc1cc(C)n(CCC(=O)N2CCCCC2c2nccs2)n1 (centres undefined) | 11.9%
O=C(CCc1ccncc1)N1CCCC(n2cccn2)C1 (centres undefined) | -1.5%
CC(CNC(=O)c1nnn(-c2ccccc2)c1C(F)(F)F)N(C)C (centres undefined) | -8.59%
Cc1cnc(NCC(C)(C)N2CCCCC2)nc1 | -5.95%
CCn1cc(C(=O)N2CCOCC2)cn1 | -3.04%
CCc1n[nH]c(C2CN(C(=O)Cc3cccs3)CCO2)n1 (centres undefined) | 25.1%
COc1ccccc1C1(CNc2ccnc(C(=O)N(C)C)c2)CC1 | 33.4%
CC(C)(C)c1cc(NC(=O)CN2CCc3cncnc3C2)on1 | 3.44%
CNS(=O)(=O)CCCN1CCCC1c1cc(C)on1 (centres undefined) | 1.72%
Cc1ccc(CN2C[C@H](C(=O)N3CCCCO3)[C@@H]3CCO[C@@H]3C2)o1 | -5.78%

SMILES | cytotoxicity at 70.5 h
Cc1cnc(N2CC[C@@H]3O[C@H](COCc4ccccn4)CC[C@@H]32)nc1 | -1.58%
CCCNC(=O)Cn1cc(C#N)c(=O)c2cc(Br)ccc21 | -8.09%
O=C(COc1ccc2cccnc2c1)N1CCN[C@H]2CS(=O)(=O)C[C@H]21 | 18.5%
CCc1ncc2c(n1)CN(C(=O)CCCc1ccc(OC)cc1)C2 | -6.31%
O=C(NCC1(O)CCSC1)c1cccc(-n2cccn2)c1 (centres undefined) | -10.4%
O=C(Cc1ccccc1)N1CCC2(CC1)CN(c1ncccn1)CCO2 | -9.68%
CCNC(=O)C1(Cc2cc(-c3ccccc3)no2)CCCN(C(C)C)C1 (centres undefined) | -6.54%
CCOCC(=O)Nc1nccn1Cc1ccc(Br)cc1 | -5.58%
Cc1ccc(NC(=O)N2CCCC(O)(CO)CC2)cc1Cl (centres undefined) | -4.85%
CN(C)C(=O)CN1CCCC1c1nc(N)ncc1-c1ccc(F)cc1 (centres undefined) | 2.44%
COc1ccc(OC)c(C(O)CNC(=O)Nc2cc(C)nn2C)c1 (centres undefined) | -7.8%
CC(=O)NCCSCCOc1cccc(Br)c1 | 17.6%
Cc1ccc(Cl)c(C(C(=O)O)N(C)Cc2cnn(C)c2)c1 (centres undefined) | 5.66%
Cc1nc(C2CCCN(S(C)(=O)=O)C2)sc1Br (centres undefined) | -0.507%
Cn1cc(CNCC2(O)CCCN(Cc3ccc(F)c(F)c3)C2=O)cn1 (centres undefined) | -3.67%
CN(Cc1ccccc1)C(=O)c1cc2c(c(S(N)(=O)=O)c1)CCC2 | 30.7%
COc1ccccc1CNc1c(N2CCN(C(C)=O)CC2)c(=O)c1=O | -10.2%
O=C(O)[C@H]1C[C@H](C(=O)NCc2ccncc2)CN(CCC(F)(F)F)C1 | -6.65%
Cc1nn(C)c(C)c1CC(C)NC(=O)NCc1ccoc1C (centres undefined) | -4.68%
Cc1cccc(C)c1NC(=O)c1n[nH]c(-n2cnnc2)n1 | -13.4%
CN(Cc1cccnc1)c1nc(-c2ccccn2)nc2c1CCNCC2 | -5.18%
Cc1ccc(C(=O)N2CCC3(CC2)c2ccccc2[C@@H](N)[C@@H]3O)cc1F | -10.1%
Cc1nnc(NCc2ccccc2S(=O)(=O)N(C)C)c(C#N)c1C | 0.114%

SMILES | cytotoxicity at 70.5 h
CCC(CO)N(Cc1ccco1)C(=O)c1cccc(C)c1O (centres undefined) | -0.632%
CC(C)c1nc(S(=O)(=O)N(C)c2ccc(F)cc2)c[nH]1 | -7.45%
Cc1nnc(NC(=O)NCc2ccc(C)n2C)s1 | 13.4%
O=C(CCn1ncc2c(Cl)cccc21)NCCCn1cccn1 | -5.51%
O=C(NC[C@H]1OC[C@@H](NC2COC2)[C@@H]1O)c1cccs1 | -15.7%
O[C@H]1CCN(CCCOc2ccccc2F)C[C@@]12CCCO2 | 18.1%
O=C(Nc1cccc(N2CCN(CC3CC3)CC2)c1)N1CCCC1 | 0.629%
COc1cc(C2CC(=O)Oc3cc(C)[nH]c(=O)c32)ccc1OCC(=O)O (centres undefined) | -14.1%
Cc1ncsc1CN1CC[C@](C)(O)[C@@H](Oc2cccc(F)c2)C1 | -3.09%
COc1ccccc1OCCNCc1c(C)nn(C)c1N(C)C | -3.32%
CO[C@H]1CN(C(=O)c2cccc(C)n2)CC[C@@]12CCCO2 | -6.22%
CCn1nccc1CNc1[nH]cnc2nc(C)nc1-2 | 27.9%
O=c1c2cn[nH]c2nc(SCCN2CCCC2)n1-c1ccccc1 | -6.58%
CC(=O)N1CCC(Cc2cnc(-c3c(C)nn(C)c3C)cn2)CC1 | -0.949%
CCOC(=O)CCn1cnc2onc(-c3ccc(OC)cc3)c2c1=O | 35.2%
Cn1ncc2c1NC(=O)CC2c1ccc(O)cc1 (centres undefined) | 7.25%
COc1cc(CNc2nc(C(F)(F)F)no2)cc(OC)c1OC | -4.05%
Cc1ccnc(OC[C@]23COC[C@H]2CN(C(=O)c2cnccn2)C3)n1 | 14.9%
Fc1cccc(NCc2ncc[nH]2)c1 | -8.15%
NCCc1cn(Cc2ccccn2)c2ccccc12 | -5.82%
Cc1nc(CO[C@@H]2CN(Cc3ccccn3)[C@@H]3COC[C@@H]32)cs1 | -7.36%
COc1c(C2CCCN2Cc2csc(C(C)C)n2)c(C)nn1C (centres undefined) | 41%
